From patent publication US9469650B2, “Melampomagnolide B derivatives” (BOARD OF TRUSTEES OF THE UNIVERSITY OF ARKANSAS, priority 2013, dated 2016)

How the values were obtained:
M14 = experiment: panel of 60 human tumor cell lines, growth inhibition (Melanoma); details: Homo sapiens; for GI50: M14; for CC50: M14, read-out: LC50; for IC (TGI): M14, read-out: TGI
MDA-MB-231/ATCC = experiment: panel of 60 human tumor cell lines, growth inhibition (Breast Cancer); details: Homo sapiens; for GI50: MDA-MB-231; for CC50: MDA-MB-231, read-out: LC50; for IC (TGI): MDA-MB-231, read-out: TGI
SK-MEL-5 = experiment: panel of 60 human tumor cell lines, growth inhibition (Melanoma); details: Homo sapiens; for GI50: SK-MEL-5; for CC50: SK-MEL-5, read-out: LC50; for IC (TGI): SK-MEL-5, read-out: TGI
ACHN = experiment: panel of 60 human tumor cell lines, growth inhibition (Renal Cancer); details: Homo sapiens; for CC50: read-out: LC50; for IC (TGI): read-out: TGI
CCRF-CEM = experiment: panel of 60 human tumor cell lines, growth inhibition (Leukemia); details: Homo sapiens; for CC50: read-out: LC50; for IC (TGI): read-out: TGI
MCF7 = experiment: panel of 60 human tumor cell lines, growth inhibition (Breast Cancer); details: Homo sapiens; for CC50: MCF7, read-out: LC50; for IC (TGI): MCF7, read-out: TGI
HCC-2998 = experiment: panel of 60 human tumor cell lines, growth inhibition (Colon Cancer); details: Homo sapiens; for GI50: HCC 2998; for CC50: HCC 2998, read-out: LC50; for IC (TGI): HCC 2998, read-out: TGI
NCI-H460 = experiment: panel of 60 human tumor cell lines, growth inhibition (Non-Small Cell Lung Cancer); details: Homo sapiens; for GI50: NCI-H460; for CC50: NCI-H460, read-out: LC50; for IC (TGI): NCI-H460, read-out: TGI
SR = experiment: panel of 60 human tumor cell lines, growth inhibition (Leukemia); details: Homo sapiens; for CC50: read-out: LC50; for IC (TGI): read-out: TGI
MDA-MB-435 = experiment: panel of 60 human tumor cell lines, growth inhibition (Melanoma); details: Homo sapiens; for GI50: MDA-MB-435; for CC50: MDA-MB-435, read-out: LC50; for IC (TGI): MDA-MB-435, read-out: TGI
OVCAR-8 = experiment: panel of 60 human tumor cell lines, growth inhibition (Ovarian Cancer); details: Homo sapiens; for GI50: OVCAR-8; for CC50: OVCAR-8, read-out: LC50; for IC (TGI): OVCAR-8, read-out: TGI
NCI-H226 = experiment: panel of 60 human tumor cell lines, growth inhibition (Non-Small Cell Lung Cancer); details: Homo sapiens; for GI50: NCI-H226; for CC50: NCI-H226, read-out: LC50; for IC (TGI): NCI-H226, read-out: TGI
LOX IMVI = experiment: panel of 60 human tumor cell lines, growth inhibition (Melanoma); details: Homo sapiens; for CC50: read-out: LC50; for IC (TGI): read-out: TGI
SK-OV-3 = experiment: panel of 60 human tumor cell lines, growth inhibition (Ovarian Cancer); details: Homo sapiens; for GI50: SK-OV-3; for CC50: SK-OV-3, read-out: LC50; for IC (TGI): SK-OV-3, read-out: TGI
786-0 = experiment: panel of 60 human tumor cell lines, growth inhibition (Renal Cancer); details: Homo sapiens; for GI50: 786-0; for CC50: 786-0, read-out: LC50; for IC (TGI): 786-0, read-out: TGI
HOP-62 = experiment: panel of 60 human tumor cell lines, growth inhibition (Non-Small Cell Lung Cancer); details: Homo sapiens; for GI50: HOP-62; for CC50: HOP-62, read-out: LC50; for IC (TGI): HOP-62, read-out: TGI
U251 = experiment: panel of 60 human tumor cell lines, growth inhibition (CNS Cancer); details: Homo sapiens; for GI50: U-251; for CC50: U-251, read-out: LC50; for IC (TGI): U-251, read-out: TGI
SN12C = experiment: panel of 60 human tumor cell lines, growth inhibition (Renal Cancer); details: Homo sapiens; for CC50: read-out: LC50; for IC (TGI): read-out: TGI
UO-31 = experiment: as above; details: Homo sapiens; for GI50: UO-31; for CC50: UO-31, read-out: LC50; for IC (TGI): UO-31, read-out: TGI

C=C1C(=O)O[C@H]2[C@H]1CC/C(COC(=O)NCCN1CCCC1)=C\CC[C@@]1(C)O[C@@H]21 [JVM 59, ((1aR,7aS,10aS,10bS,E)-1a-methyl-8-methylene-9-oxo-1a,2,3,6,7,7a,8,9,10a,10b-decahydrooxireno[2′,3′:9,10]cyclodeca[1,2-b]furan-5-yl)methyl-(2-(pyrrolidin-1-yl)ethyl)carbamate]
GI50 (M14): 9.65 µM
CC50 (M14): 58.1 µM
IC (TGI) (M14): 24 µM
GI50 (MDA-MB-231/ATCC): 15.2 µM
CC50 (MDA-MB-231/ATCC): 61.6 µM
IC (TGI) (MDA-MB-231/ATCC): 30.6 µM
GI50 (SK-MEL-5): 15.5 µM
CC50 (SK-MEL-5): 55.1 µM
IC (TGI) (SK-MEL-5): 29.2 µM
GI50 (ACHN): 3.8 µM
CC50 (ACHN): 39.4 µM
IC (TGI) (ACHN): 14.7 µM
GI50 (CCRF-CEM; 5-dose assay): 2.49 µM
GI50 (CCRF-CEM; five dose): 2.49 µM
CC50 (CCRF-CEM): 64.3 µM
IC (TGI) (CCRF-CEM): 9.12 µM
GI50 (MCF7; MCF7, MCF7, five dose): 3.91 µM
GI50 (MCF7; MCF7, MCF7, 5-dose assay): 3.91 µM
CC50 (MCF7): 63.7 µM
IC (TGI) (MCF7): 17.1 µM
GI50 (HCC-2998): 19.2 µM
CC50 (HCC-2998): 67.9 µM
IC (TGI) (HCC-2998): 36.1 µM
GI50 (NCI-H460): 22.3 µM
CC50 (NCI-H460): > 100 µM
IC (TGI) (NCI-H460): 51.4 µM
GI50 (SR): 10.2 µM
CC50 (SR): > 100 µM
IC (TGI) (SR): 39.3 µM
GI50 (MDA-MB-435): 6.56 µM
CC50 (MDA-MB-435): 53.4 µM
IC (TGI) (MDA-MB-435): 21.1 µM
GI50 (OVCAR-8): 13.4 µM
CC50 (OVCAR-8): 72.2 µM
IC (TGI) (OVCAR-8): 31.1 µM
GI50 (NCI-H226): 35.3 µM
CC50 (NCI-H226): > 100 µM
IC (TGI) (NCI-H226): > 100 µM
GI50 (LOX IMVI; 5-dose assay): 7.88 µM
GI50 (LOX IMVI; five dose): 7.88 µM
CC50 (LOX IMVI): 60.6 µM
IC (TGI) (LOX IMVI): 23.4 µM
GI50 (SK-OV-3): 29.4 µM
CC50 (SK-OV-3): > 100 µM
IC (TGI) (SK-OV-3): > 100 µM
GI50 (786-0): 14.4 µM
CC50 (786-0): 60 µM
IC (TGI) (786-0): 29.4 µM
GI50 (HOP-62): 18 µM
CC50 (HOP-62): 62.3 µM
IC (TGI) (HOP-62): 33.5 µM
GI50 (U251): 26.7 µM
CC50 (U251): > 100 µM
IC (TGI) (U251): 93.1 µM
GI50 (SN12C): 17.7 µM
CC50 (SN12C): 85.5 µM
IC (TGI) (SN12C): 39 µM
GI50 (UO-31): 13.4 µM
CC50 (UO-31): 75.3 µM
IC (TGI) (UO-31): 31.8 µM

C=C1C(=O)O[C@H]2[C@H]1CC/C(COC(=O)OCCN(C)C)=C\CC[C@@]1(C)O[C@@H]21 [JVM 2-35]
GI50 (M14): 3.71 µM
CC50 (M14): 45.6 µM
IC (TGI) (M14): 16.4 µM
GI50 (MDA-MB-231/ATCC): 5.86 µM
CC50 (MDA-MB-231/ATCC): 56.9 µM
IC (TGI) (MDA-MB-231/ATCC): 21.3 µM
GI50 (SK-MEL-5): 11.5 µM
CC50 (SK-MEL-5): 53.8 µM
IC (TGI) (SK-MEL-5): 24.9 µM
GI50 (ACHN): 3.26 µM
CC50 (ACHN): 40.9 µM
IC (TGI) (ACHN): 13.4 µM
GI50 (CCRF-CEM; NCI five dose): 2.1 µM
CC50 (CCRF-CEM): > 100 µM
IC (TGI) (CCRF-CEM): 6.14 µM
GI50 (MCF7; MCF7, MCF7, NCI five dose): 2.92 µM
CC50 (MCF7): 56.3 µM
IC (TGI) (MCF7): 13 µM
GI50 (HCC-2998): 15.8 µM
CC50 (HCC-2998): 61.9 µM
IC (TGI) (HCC-2998): 31.3 µM
GI50 (NCI-H460): 20.7 µM
CC50 (NCI-H460): > 100 µM
IC (TGI) (NCI-H460): 52.1 µM
GI50 (SR): 2.22 µM
CC50 (SR): > 100 µM
IC (TGI) (SR): 12.1 µM
GI50 (MDA-MB-435): 4.03 µM
CC50 (MDA-MB-435): 45.7 µM
IC (TGI) (MDA-MB-435): 16.3 µM
GI50 (OVCAR-8): 13.5 µM
CC50 (OVCAR-8): 96 µM
IC (TGI) (OVCAR-8): 36 µM
GI50 (NCI-H226): 11.9 µM
CC50 (NCI-H226): 89.9 µM
IC (TGI) (NCI-H226): 32.7 µM
GI50 (LOX IMVI; NCI five dose): 5.16 µM
CC50 (LOX IMVI): 47.5 µM
IC (TGI) (LOX IMVI): 18.2 µM
GI50 (SK-OV-3): 27.5 µM
CC50 (SK-OV-3): > 100 µM
IC (TGI) (SK-OV-3): 83.3 µM
GI50 (786-0): 2.75 µM
CC50 (786-0): 37.3 µM
IC (TGI) (786-0): 12.1 µM
GI50 (HOP-62): 22.9 µM
CC50 (HOP-62): > 100 µM
IC (TGI) (HOP-62): 82.1 µM
GI50 (U251): 20.3 µM
CC50 (U251): > 100 µM
IC (TGI) (U251): 45.2 µM
GI50 (SN12C): 13.2 µM
CC50 (SN12C): > 100 µM
IC (TGI) (SN12C): 39.7 µM
GI50 (UO-31): 4.58 µM
CC50 (UO-31): 48.3 µM
IC (TGI) (UO-31): 18.6 µM
